pEC50, pIC50, pKd: −log10 of the molar value. Values belong to the compound of their own block, whether it stands above or below them. Where a SMILES comes first, the peptide text is derived from it. Bridges are numbered along the chain shown (N, C = ends). [ ]: non-standard residue; d: D form. The star is where a group is joined. hPhe(3-Cl-4-CF3) = N[C@@H](CCc1ccc(C(F)(F)F)c(Cl)c1)C(=O)O; hPhe(4-CF3) = N[C@@H](CCc1ccc(C(F)(F)F)cc1)C(=O)O; NMePhe(4-Cl) = CN[C@@H](Cc1ccc(Cl)cc1)C(=O)O; NMeCha = CN[C@@H](CC1CCCCC1)C(=O)O; NMeF = CN[C@@H](Cc1ccccc1)C(=O)O; NMeL = CN[C@@H](CC(C)C)C(=O)O; NMeV = CN[C@H](C(=O)O)C(C)C; NMeA = CN[C@@H](C)C(=O)O; Pyrrolidide = C1CCN(*)C1; Ac5c = NC1(C(=O)O)CCCC1; β3hA = C[C@H](N)CC(=O)O; Sar = CNCC(=O)O
Key:
GTPase KRas [1] = target: T1, GTPase KRas (Homo sapiens, UniProt P01116); assay: Inhibition of KRas (unknown origin)
GTPase KRas [2] = target: T2, GTPase KRas (Homo sapiens, UniProt P01116, G12D); assay: Binding affinity to KRas G12D mutant (unknown origin) assessed as dissociation constant by SPR analysis
GTPase KRas [3] = target: T2, GTPase KRas; assay: Inhibition of KRas G12D mutant (unknown origin) by TR-FRET assay
[4] = Inhibition of Biotinylated Avi-tagged KRas G12D mutant/GST tagged Raf1-RBD domain (1 to 149 residues) (unknown origin) incubated for 1 hr by TR-FRET assay; design: species or system Homo sapiens
GTPase KRas [5] = target: T1, GTPase KRas; assay: Binding affinity to GTP bound KRas (unknown origin) assessed as dissociation constant by fluorescence anisotropy assay
GTPase KRas [6] = target: T1, GTPase KRas; assay: Binding affinity to GppNHp bound KRas (unknown origin) assessed as dissociation constant by fluorescence anisotropy assay
SOS1-KRAS [7] = target: SOS1-KRAS (Homo sapiens, UniProt P01116, G12D); assay: Inhibition of KRAS G12D mutant/SOS1 (unknown origin) interaction by TR-FRET assay; assay type: protein-complex assay
GTPase KRas [8] = target: T2, GTPase KRas; assay: Inhibition of human KRas G12D mutant incubated for 0.5 hrs by absorbance based analysis
SOS1-KRAS [9] = target: T3, SOS1-KRAS (Homo sapiens, UniProt P01116); assay: Binding affinity to his-tagged N-terminal KRas (1 to 166 residues)/his-tagged catalytic domain SOS (564 to 1049 residues) (unknown origin) interaction extracted from Escherichia coli (BL21) assessed as dissociation constant by fluorescence polarization assay; assay type: protein-complex assay
SOS1-KRAS [10] = target: T3, SOS1-KRAS; assay: Binding affinity to his-tagged N-terminal GDP-bound KRas (1 to 166 residues)/his-tagged catalytic domain SOS (564 to 1049 residues) (unknown origin) interaction extracted from Escherichia coli (BL21) assessed as dissociation constant by fluorescence polarization assay; assay type: protein-complex assay
SOS1-KRAS [11] = target: T3, SOS1-KRAS; assay: Inhibition of his-tagged N-terminal GDP-bound KRas (1 to 166 residues)/his-tagged catalytic domain SOS (564 to 1049 residues) (unknown origin) interaction extracted from Escherichia coli (BL21) by fluorescence based spectroflurometric analysis; assay type: protein-complex assay

Compound: CC(C)[C@H]1NC(=O)[C@H](CCCNC(=N)N)NC(=O)[C@@H](Cc2ccccc2)NC(=O)[C@@H]2CCCCNC(=O)c3cc(cc(c3)C(=O)N[C@H](Cc3ccc4ccccc4c3)C(=O)N[C@@H](CO)C(=O)N[C@@H](CCC(N)=O)C(=O)N[C@H](Cc3ccc4ccccc4c3)C(=O)N[C@@H](c3ccccc3)C(=O)N2)C(=O)NC[C@@H](C(N)=O)NC(=O)[C@H](CCCNC(=N)N)NCC1=O
- pKd (GTPase KRas [5]): 5.92
- pKd (GTPase KRas [6]): 5.80

Compound: CC[C@H](C)[C@@H]1NC(=O)[C@H](C)N(C)C(=O)C[C@@H](C(=O)N2CCCC2)NC(=O)[C@H](CC(C)C)N(C)C(=O)[C@H](Cc2ccccc2)N(C)C(=O)[C@H](CC(C)C)NC(=O)[C@H](CCc2ccc(C(F)(F)F)cc2)NC(=O)CN(C)C(=O)[C@H](Cc2ccc(Cl)cc2)N(C)C(=O)CN(C)C1=O ([NMeA]I[Sar][NMePhe(4-Cl)][Sar][hPhe(4-CF3)]L[NMeF][NMeL]D-Pyrrolidide; lactam N-10)
- pIC50 (SOS1-KRAS [7]): 7.74

Compound: CC[C@H](C)[C@H](NC(=O)CN1C/C=C\CCC(=O)N[C@@H](Cc2ccccc2)C(=O)N[C@@H](CCC(=O)O)C1=O)C(=O)N[C@@H](Cc1ccc(O)cc1)C(=O)N[C@@H](CCCNC(=N)N)C(=O)N[C@@H](CC(C)C)C(=O)N[C@@H](CCC(=O)O)C(=O)N[C@@H](CC(C)C)C(=O)N[C@@H](CC(C)C)C(=O)N[C@@H](CCCCN)C(=O)N[C@@H](C)C(=O)N[C@@H](CCC(=O)O)C(=O)N[C@@H](CCC(=O)O)C(=O)N[C@@H](C)C(=O)N[C@@H](CC(N)=O)C(N)=O
- pIC50 (SOS1-KRAS [7]): 6.19
- pKd (SOS1-KRAS [9]): 4.55
- pKd (SOS1-KRAS [10]): 3.80
- pIC50 (SOS1-KRAS [11]): 5.16

Compound: CC[C@H](C)[C@@H]1NC(=O)[C@H](CC(C)C)N(C)C(=O)C[C@H](C)NC(=O)[C@H](C(C)C)N(C)C(=O)C2(CCCC2)NC(=O)[C@@H]2CCCN2C(=O)[C@H](CCc2ccc(C(F)(F)F)c(Cl)c2)NC(=O)CN(C)C(=O)[C@H](CC2CCCCC2)N(C)C(=O)CN(C)C1=O (cyclo([Ac5c][NMeV][β3hA][NMeL]I[Sar][NMeCha][Sar][hPhe(3-Cl-4-CF3)]P))
- pIC50 (SOS1-KRAS [7]): 7.96

Compound: CC[C@H](C)[C@@H]1NC(=O)[C@H](CC(C)C)N(C)C(=O)C[C@H](C)NC(=O)[C@H](CC(C)C)N(C)C(=O)C2(CCCC2)NC(=O)[C@@H]2CCCN2C(=O)[C@H](CCc2ccc(C(F)(F)F)cc2)NC(=O)CN(C)C(=O)[C@H](CC2CCCCC2)N(C)C(=O)CN(C)C(=O)CN(C)C1=O (cyclo([Ac5c][NMeL][β3hA][NMeL]I[Sar][Sar][NMeCha][Sar][hPhe(4-CF3)]P))
- pIC50 (SOS1-KRAS [7]): 6.96

Continued, values first:

- pIC50 (GTPase KRas [1]): 4.00
Compound: CC[C@H](C)[C@@H]1NC(=O)[C@@H]2CCCN2C(=O)CNC(=O)CCn2nncc2COCCCC(C(=O)N[C@@H](CC(C)C)C(N)=O)NC1=O (stereo not given in full)

- pKd (GTPase KRas [2]): 7.29
- pIC50 (GTPase KRas [3]): 8.05
Compound: CC[C@H](C)[C@@H]1NC(=O)[C@H](Cc2ccc(O)cc2)NC(=O)[C@H](CC(C)C)NC(=O)[C@@H]2CCCN2C(=O)[C@@H](NC(=O)[C@H](CCCNC(=N)N)NC(=O)[C@H](CCCNC(=N)N)NC(C)=O)CSSC[C@@H](C(=O)N[C@@H](CCCNC(=N)N)C(=O)N[C@@H](CCCNC(=N)N)C(N)=O)NC(=O)[C@H](C(C)C)NC(=O)[C@@H]2CCCN2C(=O)[C@H](CC(=O)O)NC(=O)[C@H](Cc2ccc(O)cc2)NC(=O)[C@H](CO)NC1=O (Ac-RRCPLYISYDPVCRR-NH2; disulfide 3-13)

- pIC50 [4]: 4.82
Compound: CC(C)C[C@@H]1NC(=O)[C@H](CCC(=O)O)NC(=O)[C@H](CC(C)C)NC(=O)[C@@H]2CCCN2C(=O)[C@H](CCCNC(=N)N)NC(=O)[C@H](Cc2ccc(O)cc2)NC(=O)[C@@H]2CCCN2C(=O)[C@H](Cc2ccc(O)cc2)NC(=O)[C@H](CC(N)=O)NC(=O)[C@@H](Cc2ccc(O)cc2)NC(=O)CSC[C@@H](C(=O)NCC(N)=O)NC(=O)[C@H](Cc2ccc(O)cc2)NC(=O)[C@H](Cc2c[nH]c3ccccc23)NC1=O

- pEC50 (GTPase KRas [8]): 7.66
Compound: CCCCCCC[C@@H]1NC(=O)[C@H](CO)NC(=O)[C@H](Cc2ccc(F)cc2)NC(=O)[C@H](CC(=O)O)NC(=O)[C@@H]2CCCN2C(=O)[C@H](Cc2c[nH]c3ccccc23)NC(=O)[C@H]2CSCCCSC[C@H](NC1=O)C(=O)N[C@@H](CCCC)C(=O)NCCC(=O)N2

- pIC50 (SOS1-KRAS [7]): 7.44
Compound: CC[C@H](C)[C@H](NC(=O)CNC(=O)[C@H](Cc1ccccc1)NC(=O)[C@H](Cc1ccccc1)NC(=O)[C@H](CCCNC(=N)N)NC(=O)[C@H](CCCNC(=N)N)NC(C)=O)C(=O)N[C@@]1(C)CCC/C=C\CCC[C@@](C)(C(=O)N[C@@H](CC(C)C)C(=O)N[C@@H](CCCCN)C(=O)N[C@H](C(=O)N[C@@H](CCC(=O)O)C(=O)N[C@@H](CCC(=O)O)C(=O)NCC(=O)N[C@@H](CC(N)=O)C(N)=O)[C@@H](C)O)NC(=O)[C@@H](CC(N)=O)NC(=O)[C@H]([C@@H](C)O)NC(=O)[C@@H](CC(C)C)NC1=O

From ChEMBL document CHEMBL6127081, “Peptide inhibitors targeting Ras and Ras-associated protein-protein interactions” (Eur J Med Chem, 2024)
